Measured values published in PubChem BioAssay (NCI).
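Cultured in 96-well plates, cells were exposed to test compound for 48 hours across five concentrations. At the GI50, growth is halved. TGI marks complete inhibition of growth.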

Experiments:
Assay in all cases: DTP human tumour cell line panel, 48 h
EKVX NSCLC = system: EKVX NSCLC
SF-539 CNS = system: SF-539 CNS
OVCAR-4 ovarian = system: OVCAR-4 ovarian
UO-31 renal = system: UO-31 renal
NCI-H460 lung = system: NCI-H460 lung
DLD-1 colon = system: DLD-1 colon
RPMI-8226 leukemia = system: RPMI-8226 leukemia
HCC-2998 colon = system: HCC-2998 colon
SK-OV-3 ovarian = system: SK-OV-3 ovarian
DMS 273 small cell lung = system: DMS 273 small cell lung

SMILES | TGI (EKVX NSCLC) | TGI (SF-539 CNS) | TGI (OVCAR-4 ovarian) | TGI (UO-31 renal) | TGI (NCI-H460 lung) | TGI (DLD-1 colon) | TGI (RPMI-8226 leukemia) | TGI (HCC-2998 colon) | TGI (SK-OV-3 ovarian) | TGI (DMS 273 small cell lung) | GI50 (EKVX NSCLC) | GI50 (SF-539 CNS) | GI50 (OVCAR-4 ovarian) | GI50 (UO-31 renal) | GI50 (NCI-H460 lung) | GI50 (RPMI-8226 leukemia) | GI50 (HCC-2998 colon) | GI50 (SK-OV-3 ovarian)
CC1=C(C(=O)Nc2ccccc2)C(c2ccc(C(C)C)cc2)C(C(=O)Nc2ccccc2)=C(C)N1 | > 88 µM | 17.6 µM | > 100 µM | 46.6 µM | 55.4 µM | > 100 µM | 29.8 µM | 20.9 µM | 82.9 µM |  |  |  |  |  |  |  |  | 
Cn1cc(NC(=O)c2cc(NC(=O)CCCCCCC(=O)Nc3cc(C(=O)Nc4cc(C(=O)NCCC(=N)N)n(C)c4)n(C)c3)cn2C)cc1C(=O)NCCC(=N)N | > 100 µM | 31 µM | > 100 µM | > 100 µM | 21.4 µM | > 100 µM |  | 23.2 µM | > 100 µM | 12.7 µM |  |  |  |  |  |  |  | 
COc1cc([C@@H]2c3cc4c(cc3C(OC3O[C@@H]5COC(C)O[C@H]5[C@H](O)[C@H]3O)C3COC(=O)[C@@H]32)OCO4)cc(OC)c1O (stereo not given in full) | > 50 µM | 3.78 µM | > 50 µM | 31.6 µM | 6.88 µM |  | 7.83 µM | 11.2 µM | 14.2 µM |  | 11.4 µM | 0.635 µM | 14.4 µM | 3 µM | 0.116 µM | 0.666 µM | 1.91 µM | 1.58 µM
Oc1c(CN2CCOCC2)cc(COCc2ccccc2)c2cccnc12 | > 100 µM | 11.5 µM | > 100 µM | 9.36 µM | 53.3 µM |  | > 100 µM | > 100 µM | 22.2 µM |  | 2.88 µM | 2.24 µM | 1.97 µM | 0.351 µM | 0.756 µM | 4.06 µM | 3.28 µM | 3 µM
Cc1sc2ncn(Cc3ccc(Cl)c(Cl)c3)c(=O)c2c1C | > 100 µM | > 100 µM | 68.9 µM | > 100 µM | > 100 µM |  | > 100 µM | 30.1 µM | > 100 µM |  | 22.2 µM | 37 µM | 28.2 µM | 31.4 µM | 51.5 µM | 12.2 µM | 7.39 µM | 46.8 µM
c1ccc2nc(OCCN3CC3)ccc2c1 | 33.4 µM | 47.1 µM | 25.3 µM | 25 µM | 20.9 µM |  | 26.7 µM | 5.53 µM | 33.6 µM |  | 12 µM | 21.5 µM | 10.3 µM | 6.39 µM | 4.21 µM | 3.94 µM | 2.31 µM | 16.8 µM
CCOC(=O)NC(=O)c1c[nH]c(=O)[nH]c1=O | > 100 µM | > 100 µM | > 100 µM | > 100 µM | > 100 µM | > 100 µM | > 100 µM | > 100 µM | > 100 µM | > 100 µM |  |  |  |  |  |  |  | 
COC(=O)C1CC(C(=O)OC)c2nc3cc(C)c(C)cc3nc21 (stereo not given) | > 100 µM | > 100 µM | > 100 µM | > 100 µM | > 100 µM | > 100 µM | > 100 µM | > 100 µM | > 100 µM | > 100 µM |  |  |  |  |  |  |  | 
Nc1ccc(C(=O)N/C(=C\c2cccc([N+](=O)[O-])c2)c2nc3c4c(ccc3[nH]2)C(=O)c2ccccc2C4=O)cc1 | > 100 µM | > 100 µM | 43.4 µM | 7.64 µM | > 100 µM | > 100 µM | > 100 µM | > 100 µM | > 100 µM | > 100 µM |  |  |  |  |  |  |  | 
O=C(Nc1ccc(I)cc1F)c1cc(I)ccc1O | 7.17 µM | 16.2 µM | > 100 µM | 2.22 µM | 22.4 µM |  | 1.64 µM | 15.1 µM | > 100 µM |  | 0.737 µM | 0.651 µM | 0.798 µM | 0.535 µM | 0.506 µM | 0.375 µM | 2.63 µM | 2.56 µM
ClCC#CCSc1ncnc2c1ncn2CC#CCCl | 4.2 µM | 4.21 µM | 8.29 µM | 3.38 µM | 6.77 µM |  | 6.38 µM | 3.11 µM | 3.95 µM |  | 1.9 µM | 2.1 µM | 2.12 µM | 1.33 µM | 2.15 µM | 2.03 µM | 1.67 µM | 1.86 µM
CC(=O)N1CCN(CCOc2ccc(C3CCN(C4=Nn5c(nnc5C(F)(F)F)CC4)CC3)cc2)CC1 | > 100 µM | > 100 µM | > 100 µM | > 100 µM | > 100 µM |  | 79.7 µM | > 100 µM | > 100 µM |  | 14.7 µM | 22.5 µM | 8.55 µM | 4.75 µM | 30.9 µM | 4.74 µM | 21.6 µM | 21.1 µM
COc1cc([C@@H]2c3cc4c(cc3C[C@H]3COC(=O)[C@@H]32)OCO4)cc2c1OCO2 | > 100 µM | < 0.01 µM | > 100 µM | > 100 µM | 0.33 µM |  | > 100 µM | < 0.01 µM | > 100 µM |  |  |  |  |  |  |  |  | 
O=C(CCl)Nc1cc(O)c2c(c1)C(=O)c1cccc(O)c1C2=O | 4.52 µM | 6.6 µM | 7.23 µM | 2.71 µM | 3.92 µM |  | 6.39 µM | 3.4 µM | 18.1 µM |  | 1.77 µM | 2.29 µM | 1.96 µM | 1.39 µM | 1.79 µM | 2.17 µM | 1.75 µM | 2.61 µM
O=S(=O)(O)ONC1=NCCN1 | > 100 µM | > 100 µM | > 100 µM | > 100 µM | > 100 µM |  | > 100 µM | > 100 µM | > 100 µM |  | > 100 µM | > 100 µM | > 100 µM | 29.1 µM | > 100 µM | 46.1 µM | > 100 µM | > 100 µM
